One data set addresses CYP2C19 (Homo sapiens (Human), UniProt P33261). Kind of data set: CYP enzyme inhibition, fluorescent substrate. The procedure, abridged:
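[…]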

Data set [1] in a line: Turbidity assay of relative solubility in aqueous buffers. Type of data set: physicochemical. The note with it: for turbidity threshold (L, M, H) 1.4: pH 1.4 as headed (method: SGF pH 1.5); for turbidity threshold (L, M, H) 4.5: pH 4.5 (SIF); for turbidity threshold (L, M, H) 6.8: pH 6.8 (SIF); for turbidity threshold (L, M, H) 7.4: pH 7.4 (HEPES). The method in brief: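 Turbidity was read spectrophotometrically at 490, 535 and 650 nm, and the endpoint is the concentration where OD passes 0.01, as the mean of the three wavelengths. Compounds came from 25 mM DMSO stock in 1:1 serial dilutions, added to HEPES pH 7.4, SIF pH 6.8 or 4.5 (0.05M NaH2PO4), or SGF pH 1.5 (0.5M NaCl).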

Like-named read-outs stand apart in the source and are kept apart here. Where only a bound is given, the exact number is not on record here.

Experimental findings from patent US9096593B2, “Compounds and methods for kinase modulation, and indications therefor” (Plexxikon Inc., priority 2009, dated 2015) are described below.

CYP2C19, sequence (P33261 whole entry): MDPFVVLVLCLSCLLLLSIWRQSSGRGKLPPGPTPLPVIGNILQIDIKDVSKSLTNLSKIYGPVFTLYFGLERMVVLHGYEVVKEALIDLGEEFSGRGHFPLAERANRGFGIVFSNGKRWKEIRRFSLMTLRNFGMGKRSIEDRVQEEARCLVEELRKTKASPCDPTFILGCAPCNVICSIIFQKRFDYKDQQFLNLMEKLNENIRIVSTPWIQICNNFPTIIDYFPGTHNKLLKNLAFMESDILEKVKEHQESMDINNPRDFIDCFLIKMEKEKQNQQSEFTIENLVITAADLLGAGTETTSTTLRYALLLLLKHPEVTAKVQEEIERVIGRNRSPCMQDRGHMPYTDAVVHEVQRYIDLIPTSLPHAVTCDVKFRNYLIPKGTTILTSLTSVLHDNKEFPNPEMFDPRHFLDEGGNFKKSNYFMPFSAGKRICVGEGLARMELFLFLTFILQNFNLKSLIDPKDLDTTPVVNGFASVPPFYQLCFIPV

For the compound `Fc1cncc(CNc2ccc(Cc3c[nH]c4ncc(Cl)cc34)c(F)n2)c1` [Compound P-2001, [5-(5-Chloro-1H-pyrrolo[2,3-b]pyridin-3-ylmethyl)-6-fluoro-pyridin-2-yl]-(5-fluoro-pyridin-3-ylmethyl)-amine], at CYP2C19 (read-out: Cyp IC50 (μM) 2C19), the IC50 – broadly, the concentration that gives 50% inhibition – was less than 5 µM. In addition, in data set [1], the “turbidity threshold (L, M, H) 1.4” value is given as “M (moderate solubility if the threshold concentration is 31.3 μM to 250 μM)”; the “turbidity threshold (L, M, H) 4.5” value was “L (low solubility if the threshold concentration is <31.3 μM)”; the “turbidity threshold (L, M, H) 6.8” value is given as “L (low solubility if the threshold concentration is <31.3 μM)”; the “turbidity threshold (L, M, H) 7.4” value was “L (low solubility if the threshold concentration is <31.3 μM)”.

For the compound `COc1cnc2[nH]cc(Cc3ccc(NCc4cncc(F)c4)nc3F)c2c1` [Compound P-2028, [6-Fluoro-5-(5-methoxy-1H-pyrrolo[2,3-b]pyridin-3-ylmethyl)-pyridin-2-yl]-(5-fluoro-pyridin-3-ylmethyl)-amine], the concentration for half-maximal inhibition (IC50) at CYP2C19 (read-out: Cyp IC50 (μM) 2C19) is greater than 10 µM. In addition, in data set [1], the “turbidity threshold (L, M, H) 1.4” value was “H (high solubility if the threshold concentration is >250 μM)”; the “turbidity threshold (L, M, H) 4.5” value is given as “M (moderate solubility if the threshold concentration is 31.3 μM to 250 μM)”; the “turbidity threshold (L, M, H) 6.8” value was “M (moderate solubility if the threshold concentration is 31.3 μM to 250 μM)”; the “turbidity threshold (L, M, H) 7.4” value was “M (moderate solubility if the threshold concentration is 31.3 μM to 250 μM)”.

On to `COc1ncccc1CNc1ccc(Cc2c[nH]c3ncccc23)c(F)n1` [Compound P-2045, [6-Fluoro-5-(1H-pyrrolo[2,3-b]pyridin-3-ylmethyl)-pyridin-2-yl]-(2-methoxy-pyridin-3-ylmethyl)-amine], for which the IC50 against CYP2C19 was 5 to 10 µM. Moreover, in data set [1], the “turbidity threshold (L, M, H) 1.4” value is “H (high solubility if the threshold concentration is >250 μM)”; the “turbidity threshold (L, M, H) 4.5” value is recorded as “M (moderate solubility if the threshold concentration is 31.3 μM to 250 μM)”; the “turbidity threshold (L, M, H) 6.8” value is “M (moderate solubility if the threshold concentration is 31.3 μM to 250 μM)”; the “turbidity threshold (L, M, H) 7.4” value is recorded as “M (moderate solubility if the threshold concentration is 31.3 μM to 250 μM)”.

Consider `COc1ncc(F)cc1CNc1ncc(Cc2c[nH]c3ncc(C)cc23)cn1` [Compound P-2061, (5-Fluoro-2-methoxy-pyridin-3-ylmethyl)-[5-(5-methyl-1H-pyrrolo[2,3-b]pyridin-3-ylmethyl)-pyrimidin-2-yl]-amine], for which, at CYP2C19 (read-out: Cyp IC50 (μM) 2C19), the IC50 is greater than 10 µM. Moreover, in data set [1], the “turbidity threshold (L, M, H) 1.4” value is on record as “H (high solubility if the threshold concentration is >250 μM)”; the “turbidity threshold (L, M, H) 4.5” value is given as “M (moderate solubility if the threshold concentration is 31.3 μM to 250 μM)”; the “turbidity threshold (L, M, H) 6.8” value was “M (moderate solubility if the threshold concentration is 31.3 μM to 250 μM)”; the “turbidity threshold (L, M, H) 7.4” value is recorded as “L (low solubility if the threshold concentration is <31.3 μM)”.

Consider `Cc1cnc2[nH]cc(Cc3ccc(NCc4cnccc4C(F)(F)F)nc3F)c2c1` [Compound P-2062, [6-Fluoro-5-(5-methyl-1H-pyrrolo[2,3-b]pyridin-3-ylmethyl)-pyridin-2-yl]-(4-trifluoromethyl-pyridin-3-ylmethyl)-amine], for which, at CYP2C19 (read-out: Cyp IC50 (μM) 2C19), the IC50 was less than 5 µM. In data set [1], the “turbidity threshold (L, M, H) 1.4” value is recorded as “H (high solubility if the threshold concentration is >250 μM)”; the “turbidity threshold (L, M, H) 4.5” value is recorded as “L (low solubility if the threshold concentration is <31.3 μM)”; the “turbidity threshold (L, M, H) 6.8” value was “L (low solubility if the threshold concentration is <31.3 μM)”; the “turbidity threshold (L, M, H) 7.4” value is reported as “L (low solubility if the threshold concentration is <31.3 μM)”.

Take `COc1cc(CNc2ccc(Cc3c[nH]c4ncc(C)cc34)c(F)n2)c(F)cn1` [Compound P-2071, (5-Fluoro-2-methoxy-pyridin-4-ylmethyl)-[6-fluoro-5-(5-methyl-1H-pyrrolo[2,3-b]pyridin-3-ylmethyl)-pyridin-2-yl]-amine]: the IC50 on CYP2C19 (read-out: Cyp IC50 (μM) 2C19) is greater than 10 µM. Besides, in data set [1], the “turbidity threshold (L, M, H) 1.4” value was “M (moderate solubility if the threshold concentration is 31.3 μM to 250 μM)”; the “turbidity threshold (L, M, H) 4.5” value was “L (low solubility if the threshold concentration is <31.3 μM)”; the “turbidity threshold (L, M, H) 6.8” value was “L (low solubility if the threshold concentration is <31.3 μM)”; the “turbidity threshold (L, M, H) 7.4” value is on record as “L (low solubility if the threshold concentration is <31.3 μM)”.

As to `COc1ncc(CNc2ncc(Cc3c[nH]c4ncc(C)cc34)cn2)cc1F` [Compound P-2073, (5-Fluoro-6-methoxy-pyridin-3-ylmethyl)-[5-(5-methyl-1H-pyrrolo[2,3-b]pyridin-3-ylmethyl)-pyrimidin-2-yl]-amine], the IC50 on CYP2C19 (read-out: Cyp IC50 (μM) 2C19) is greater than 10 µM. For the same compound, in data set [1], the “turbidity threshold (L, M, H) 1.4” value was “H (high solubility if the threshold concentration is >250 μM)”; the “turbidity threshold (L, M, H) 4.5” value is on record as “M (moderate solubility if the threshold concentration is 31.3 μM to 250 μM)”; the “turbidity threshold (L, M, H) 6.8” value was “M (moderate solubility if the threshold concentration is 31.3 μM to 250 μM)”; the “turbidity threshold (L, M, H) 7.4” value was “M (moderate solubility if the threshold concentration is 31.3 μM to 250 μM)”.

As for `Cc1cc(CNc2ccc(Cc3c[nH]c4ncc(Cl)cc34)c(F)n2)ccn1` [Compound P-2075, [5-(5-Chloro-1H-pyrrolo[2,3-b]pyridin-3-ylmethyl)-6-fluoro-pyridin-2-yl]-(2-methyl-pyridin-4-ylmethyl)-amine], on CYP2C19 (read-out: Cyp IC50 (μM) 2C19), the IC50 is less than 5 µM. Further, in data set [1], the “turbidity threshold (L, M, H) 1.4” value is recorded as “H (high solubility if the threshold concentration is >250 μM)”; the “turbidity threshold (L, M, H) 4.5” value is recorded as “M (moderate solubility if the threshold concentration is 31.3 μM to 250 μM)”; the “turbidity threshold (L, M, H) 6.8” value is on record as “L (low solubility if the threshold concentration is <31.3 μM)”; the “turbidity threshold (L, M, H) 7.4” value was “M (moderate solubility if the threshold concentration is 31.3 μM to 250 μM)”.

Consider `Cc1cnc2[nH]cc(Cc3cnc(NCc4ccc(C(F)(F)F)nc4)c(F)c3)c2c1` [Compound P-2146, [3-Fluoro-5-(5-methyl-1H-pyrrolo[2,3-b]pyridin-3-ylmethyl)-pyridin-2-yl]-(6-trifluoromethyl-pyridin-3-ylmethyl)-amine], for which, on CYP2C19 (read-out: Cyp IC50 (μM) 2C19), the IC50 was less than 5 µM. Further, in data set [1], the “turbidity threshold (L, M, H) 1.4” value is listed as “H (high solubility if the threshold concentration is >250 μM)”; the “turbidity threshold (L, M, H) 4.5” value is reported as “M (moderate solubility if the threshold concentration is 31.3 μM to 250 μM)”; the “turbidity threshold (L, M, H) 6.8” value is on record as “M (moderate solubility if the threshold concentration is 31.3 μM to 250 μM)”; the “turbidity threshold (L, M, H) 7.4” value is on record as “L (low solubility if the threshold concentration is <31.3 μM)”.

With `Fc1cc(Cc2c[nH]c3ncc(Cl)cc23)cnc1NCc1ccc(C(F)(F)F)nc1` [Compound P-2172, [5-(5-Chloro-1H-pyrrolo[2,3-b]pyridin-3-ylmethyl)-3-fluoro-pyridin-2-yl]-(6-trifluoromethyl-pyridin-3-ylmethyl)-amine], on CYP2C19 (read-out: Cyp IC50 (μM) 2C19), the IC50 is less than 5 µM. In data set [1], the “turbidity threshold (L, M, H) 1.4” value was “H (high solubility if the threshold concentration is >250 μM)”; the “turbidity threshold (L, M, H) 4.5” value was “L (low solubility if the threshold concentration is <31.3 μM)”; the “turbidity threshold (L, M, H) 6.8” value was “L (low solubility if the threshold concentration is <31.3 μM)”; the “turbidity threshold (L, M, H) 7.4” value is given as “L (low solubility if the threshold concentration is <31.3 μM)”.
